The values below come from publication PMC10374968, “Drosophila class-I myosins that can impact left-right asymmetry have distinct ATPase kinetics” (The Journal of Biological Chemistry, 2023).

The target in assay [1] is T1, myo1D (myosin-1D; myo31DF) (Drosophila melanogaster, UniProt Q23978). Put plainly: stopped-flow pyrene-actin fluorescence, slow-phase amplitude vs MgADP, quadratic fit. The format is binding. Set-up: full-length, C-terminal FLAG-Avi tags kept (biotinylated for gliding); baculovirus, Sf9 or Hi5 insect cells; heavy chain 117 kDa, calmodulin light chains; with Calmodulin (Gallus gallus, recombinant); Actin, alpha skeletal muscle (Oryctolagus cuniculus). Particulars: actomyosin complex; chased with 1 mM MgATP; KMg25: 10 mM Mops pH 7.0, 25 mM KCl, 1 mM MgCl2, 1 mM EGTA, 1 mM DTT; 20 C.

The target of assay [2] is T1, myo1D (myosin-1D; myo31DF). Particulars: read-out: Myo1D; rapid-equilibrium binding step to actomyosin (printed in μM, used as association constant in Equation 2); KMg25 pH 7.0, 1 mM MgCl2; 20 C.
Text: stopped-flow MgATP-induced dissociation from pyrene-actin, hyperbolic fit on myo1D (myosin-1D; myo31DF)
Assay [3] concerns the target myo1C (myosin-1C; myo61F) (Drosophila melanogaster, UniProt Q23979). Particulars: read-out: Myo1C; rapid-equilibrium binding step to actomyosin (printed in μM, used as association constant in Equation 2); KMg25 pH 7.0, 1 mM MgCl2; 20 C.
Text: stopped-flow MgATP-induced dissociation from pyrene-actin, hyperbolic fit on myo1C (myosin-1C; myo61F)

The structures appear in SMILES notation. Where two headings read alike, the source gives them in different places.

T1 sequence (Q23978 whole entry): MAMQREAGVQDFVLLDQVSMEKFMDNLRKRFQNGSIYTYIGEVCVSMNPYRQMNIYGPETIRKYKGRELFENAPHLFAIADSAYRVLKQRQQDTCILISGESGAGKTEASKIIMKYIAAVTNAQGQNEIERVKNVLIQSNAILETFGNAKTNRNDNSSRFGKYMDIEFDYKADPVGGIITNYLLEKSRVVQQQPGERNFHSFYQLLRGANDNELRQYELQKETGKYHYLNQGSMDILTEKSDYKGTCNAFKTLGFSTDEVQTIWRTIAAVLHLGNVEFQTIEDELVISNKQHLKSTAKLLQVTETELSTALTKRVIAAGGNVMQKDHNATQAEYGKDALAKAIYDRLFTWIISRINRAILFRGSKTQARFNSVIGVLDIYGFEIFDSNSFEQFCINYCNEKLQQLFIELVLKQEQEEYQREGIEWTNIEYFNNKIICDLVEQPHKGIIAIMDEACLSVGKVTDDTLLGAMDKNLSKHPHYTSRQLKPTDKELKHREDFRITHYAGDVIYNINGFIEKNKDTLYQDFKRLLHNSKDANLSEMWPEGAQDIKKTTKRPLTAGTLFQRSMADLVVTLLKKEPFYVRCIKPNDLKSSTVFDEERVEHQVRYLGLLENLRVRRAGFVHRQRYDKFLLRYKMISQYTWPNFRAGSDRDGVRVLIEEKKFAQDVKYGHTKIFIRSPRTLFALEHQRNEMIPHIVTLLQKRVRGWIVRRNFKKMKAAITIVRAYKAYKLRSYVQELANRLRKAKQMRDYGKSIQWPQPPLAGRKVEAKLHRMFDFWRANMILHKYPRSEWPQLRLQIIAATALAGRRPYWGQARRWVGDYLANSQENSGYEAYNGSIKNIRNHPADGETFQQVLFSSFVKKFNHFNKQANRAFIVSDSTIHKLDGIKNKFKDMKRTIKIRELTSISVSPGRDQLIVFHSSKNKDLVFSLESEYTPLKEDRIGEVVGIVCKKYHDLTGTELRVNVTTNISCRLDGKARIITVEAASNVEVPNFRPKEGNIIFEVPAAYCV
myo1C (myosin-1C; myo61F), sequence (Q23979 whole entry): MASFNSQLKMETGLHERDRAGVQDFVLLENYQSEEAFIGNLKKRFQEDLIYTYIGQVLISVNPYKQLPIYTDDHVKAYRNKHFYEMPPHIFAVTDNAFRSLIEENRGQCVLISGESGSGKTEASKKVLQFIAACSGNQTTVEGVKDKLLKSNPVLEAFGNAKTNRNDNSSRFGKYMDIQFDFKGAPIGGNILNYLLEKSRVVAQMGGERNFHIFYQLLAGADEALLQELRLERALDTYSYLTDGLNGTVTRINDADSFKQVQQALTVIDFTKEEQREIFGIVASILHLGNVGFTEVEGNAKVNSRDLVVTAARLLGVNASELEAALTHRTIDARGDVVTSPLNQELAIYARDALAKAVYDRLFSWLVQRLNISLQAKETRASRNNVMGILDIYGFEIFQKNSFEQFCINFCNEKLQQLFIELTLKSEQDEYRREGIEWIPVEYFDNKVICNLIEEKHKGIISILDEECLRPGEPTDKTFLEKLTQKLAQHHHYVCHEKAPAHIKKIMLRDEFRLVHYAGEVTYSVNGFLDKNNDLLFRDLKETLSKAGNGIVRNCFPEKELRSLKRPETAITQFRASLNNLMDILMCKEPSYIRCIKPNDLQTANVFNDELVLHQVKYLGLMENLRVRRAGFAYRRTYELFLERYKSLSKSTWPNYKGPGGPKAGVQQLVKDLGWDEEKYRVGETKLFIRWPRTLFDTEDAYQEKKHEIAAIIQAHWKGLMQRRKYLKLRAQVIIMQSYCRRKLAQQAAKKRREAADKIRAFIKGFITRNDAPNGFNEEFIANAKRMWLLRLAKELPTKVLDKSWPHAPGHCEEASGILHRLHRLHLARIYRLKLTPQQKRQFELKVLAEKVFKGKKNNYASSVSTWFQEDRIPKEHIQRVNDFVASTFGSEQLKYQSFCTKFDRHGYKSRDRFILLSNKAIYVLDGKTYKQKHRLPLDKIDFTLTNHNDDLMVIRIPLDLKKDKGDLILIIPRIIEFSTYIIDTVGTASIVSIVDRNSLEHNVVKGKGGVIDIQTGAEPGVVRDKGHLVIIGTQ

With `Nc1ncnc2c1ncn2[C@@H]1O[C@H](COP(=O)(O)OP(=O)(O)O)[C@@H](O)[C@H]1O` [MgADP], in assay [1], the Kd was 0.044 ± 0.002 µM. With `Nc1ncnc2c1ncn2[C@@H]1O[C@H](COP(=O)(O)OP(=O)(O)OP(=O)(O)O)[C@@H](O)[C@H]1O` [MgATP], the Kd is 118 ± 15 µM in assay [2] and 73 ± 11 µM in assay [3].
